Test results reported in patent publication US5824670A, “17-deoxycorticosteroid-21-[O]carboxylic esters, processes for their preparation and pharmaceuticals containing these compounds” (priority 1994, dated 1998).

Assays:
[1] = tested on: allergic inflammation of the delayed type (oxazolone ear edema); experiment: Local antiinflammatory effect in oxazolone ear edema in mice following epicutaneous application; assay type: in vivo, male NMRI mice; settings: for inflammatory edematous swelling, difference between right and left auricle weights (x ± s) / Inhibition in %: 24 h; for inflammatory edematous swelling, difference between right and left auricle weights (x ± s): mice; for Inhibition in %: vs control
From the text: 1. Local antiinflammatory effect in oxazolone ear edema in mice following epicutaneous application.
The method described by Evans, D. P. et al., Br. J. Pharmacol 43, 403 (1971) was used. In mice, 4-ethoxy-methylene-2-phenyl-2-oxazoline (oxazolone) produces an allergic inflammation of the delayed type which can be inhibited by corticosteroids. The experimental animals employed are male NMRI mice of 25 g body weight which are divided into groups of 10 animals each. The animals were sensitized by applying 0.1 ml of a 2% solution of oxazolone in acetone to the shaven skin of the abdomen. On the 9th day following this sensitization, the allergic inflammation was triggered by applying 10 μl of a 2% solution of oxazolone/acetone to the inner side of the right ear auricle (control group). In the treated groups, the abovementioned solution contained the test preparations. 24 hours after applying the solutions, the animals were killed with CO2. A circular sample, measuring 8 mm, was punched out from each of the treated right ear auricle and the untreated left ear auricle. The samples were weighed immediately, with the difference between the right and left auricle weights representing the measure of the degree of inflammation. This inflammatory edematous swelling, in mg, was set to equal 100% in the control group, and the inflammation-inhibiting effect of the preparations is given as the percentage inhibition as compared with the control.

carrageenin paw edema = experiment: Systemic activity following subcutaneous administration in the carrageenin paw edema test in rats; assay type: in vivo, Male Sprague-Dawley rats; settings: for Increase at 3 h (paw volume) / Increase at 6 h (paw volume): x ± s, * = p<0.05 Dunnett
Procedure: 2a. Testing for systemic activity following subcutaneous administration in the carrageenin paw edema test in rats The method was described by Winter, C. A. et al. in Proc. Soc. exp. Biol. (N.Y.), 111, 544, (1962). Male Sprague-Dawley rats of approximately 200 g body weight, and in group sizes of n=5, were given the substances subcutaneously (0.2 ml/100 g of body weight, dissolved in sesame oil). Controls were given sesame oil alone. 15 minutes later, 0.1 ml of a 0.5% solution of carrageenin was injected into the left hind paw. Prior to this, and at 3 h and 6 h afterwards, the paw volume was measured (ml) and the increase in swelling was ascertained by comparing with the preliminary value. The numbers are mean value and standard deviation (x±s). Statistical significance was assessed using the Dunnett test.

[2] = tested on: Gluconeogenesis (liver glycogen and glucose); experiment: Systemic effect: Gluconeogenesis in rats; assay type: in vivo, Male Sprague-Dawley rats
Procedure: 2b. Testing for systemic effect: Gluconeogenesis in rats
Male Sprague-Dawley rats of approximately 140 g in weight were adrenalectomized. They were given an 0.9% solution of sodium chloride as their drinking water. 48 h later, the animals' feed was removed for 24 h. On the day of the experiment (3 days after adrenalectomy and 1 day of starvation), the experimental preparations were administered s.c. (2 ml/kg in sesame oil, with controls only receiving this vehicle). The animals were decapitated 6 h later, with 1 g of liver being removed in each case. The sample was taken up in 5 ml of 0.6M perchloric acid. Following homogenization and centrifugation, glucose was determined in the supernatant. The precipitate (glycogen) was hydrolyzed enzymically with amyloglucosidase, and glucose was also determined in the resulting hydrolysate (hexokinase test kit, from Boehringer Mannheim).

Row | SMILES | inflammatory edematous swelling, difference between right and left auricle weights (x ± s) ([1]; 0.03 mg/ml epicutaneous) [mg] | Inhibition in % ([1]; 0.03 mg/ml epicutaneous) [%] | inflammatory edematous swelling, difference between right and left auricle weights (x ± s) ([1]; 0.1 mg/ml epicutaneous) [mg] | Inhibition in % ([1]; 0.1 mg/ml epicutaneous) [%] | inflammatory edematous swelling, difference between right and left auricle weights (x ± s) ([1]; 0.3 mg/ml epicutaneous) [mg] | Inhibition in % ([1]; 0.3 mg/ml epicutaneous) [%] | local antiinflammatory effect (in words) ([1]; mouse, in vivo) | effect on paw edema (in words) (carrageenin paw edema; 0.1 mg/kg s.c.) | Increase at 3 h (paw volume) (carrageenin paw edema; 0.1 mg/kg s.c.) [mL] | Increase at 6 h (paw volume) (carrageenin paw edema; 0.1 mg/kg s.c.) [mL] | effect on paw edema (in words) (carrageenin paw edema; 0.3 mg/kg s.c.) | Increase at 3 h (paw volume) (carrageenin paw edema; 0.3 mg/kg s.c.) [mL] | Increase at 6 h (paw volume) (carrageenin paw edema; 0.3 mg/kg s.c.) [mL] | advantage (factor) over deoxymethasone regarding gluconeogenic effect ([2]; rat, in vivo) | gluconeogenic effect (in words) ([2]; 0.1 mg/kg, p<0.05, Dunnett's test)
1 | C[C@@H]1C[C@H]2[C@@H]3CCC4=CC(=O)C=C[C@]4(C)[C@@]3(F)[C@@H](O)C[C@]2(C)[C@H]1C(=O)COC(=O)/C=C/c1ccccc1 [Cmpnd. I, Deoxymethasone 21-cinnamic ester] | 7.7 ± 3.7 | 43 | 3.9 ± 2.9 | 71 | 2.3 ± 1.3 | 83 | strong, local antiinflammatory effect | does not | 0.40 ± 0.06 | 0.39 ± 0.12 | practically without effect | 0.46 ± 0.12 | 0.32 ± 0.05 | 3-10 | 
2 | C[C@@H]1C[C@H]2[C@@H]3CCC4=CC(=O)C=C[C@]4(C)[C@@]3(F)[C@@H](O)C[C@]2(C)[C@H]1C(=O)CO [Deoxymethasone, 9α-fluoro-16α-methyl-1(2)-dehydrocorticosterone] | 8.6 ± 3.1 | 36 | 3.9 ± 3.0 | 71 | 2.8 ± 2.3 | 79 |  | significant effect | 0.28 | 0.23 ± 0.09 | almost completely inhibits the inflammation | 0.17 | 0.03 ± 0.03 |  | already exhibits this undesirable effect
